Test results published in US20260265238A1, “COMPOUNDS AND PHARMACEUTICAL COMPOSITIONS THAT DEGRADE SWI/SNF-RELATED MATRIX-ASSOCIATED ACTIN-DEPENDENT REGULATOR OF CHROMATIN SUBFAMILY A” (Plexium, Inc., priority 2023, published 2026).

Key:
[1] = molecular target: T1, SMARCA2-HiBiT HeLa cells (protein which is expressed from the SMARCA2 gene) (Homo sapiens, UniProt P51531); test: SMARCA2 degradation assay (HiBiT-fusion HeLa cell line, 24 h, luminescence); format: cell-based
T1 construct: protein which is expressed from the SMARCA2 and SMARCA4 genes; host or cells: HeLa (SMARCA2-HiBiT engineered line)
In short: (§1)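 In this 24-hour cellular degradation readout, HiBiT-tagged HeLa lines received compound at up to typically 10 μM down to 300 pM in 10 points. After lysis with LgBiT and substrate, luminescence signals were used to build dose-response curves for DC50.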

[2] = molecular target: T2, SMARCA4-HiBiT HeLa cells (protein which is expressed from the SMARCA4 gene) (Homo sapiens, UniProt P51532); test: SMARCA4 degradation assay (HiBiT-fusion HeLa cell line, 24 h, luminescence); format: cell-based
T2 construct: protein which is expressed from the SMARCA2 and SMARCA4 genes; host or cells: HeLa (SMARCA4-HiBiT engineered line)
In short: as §1

T2 sequence (P51532 whole entry, the tested form may be a part): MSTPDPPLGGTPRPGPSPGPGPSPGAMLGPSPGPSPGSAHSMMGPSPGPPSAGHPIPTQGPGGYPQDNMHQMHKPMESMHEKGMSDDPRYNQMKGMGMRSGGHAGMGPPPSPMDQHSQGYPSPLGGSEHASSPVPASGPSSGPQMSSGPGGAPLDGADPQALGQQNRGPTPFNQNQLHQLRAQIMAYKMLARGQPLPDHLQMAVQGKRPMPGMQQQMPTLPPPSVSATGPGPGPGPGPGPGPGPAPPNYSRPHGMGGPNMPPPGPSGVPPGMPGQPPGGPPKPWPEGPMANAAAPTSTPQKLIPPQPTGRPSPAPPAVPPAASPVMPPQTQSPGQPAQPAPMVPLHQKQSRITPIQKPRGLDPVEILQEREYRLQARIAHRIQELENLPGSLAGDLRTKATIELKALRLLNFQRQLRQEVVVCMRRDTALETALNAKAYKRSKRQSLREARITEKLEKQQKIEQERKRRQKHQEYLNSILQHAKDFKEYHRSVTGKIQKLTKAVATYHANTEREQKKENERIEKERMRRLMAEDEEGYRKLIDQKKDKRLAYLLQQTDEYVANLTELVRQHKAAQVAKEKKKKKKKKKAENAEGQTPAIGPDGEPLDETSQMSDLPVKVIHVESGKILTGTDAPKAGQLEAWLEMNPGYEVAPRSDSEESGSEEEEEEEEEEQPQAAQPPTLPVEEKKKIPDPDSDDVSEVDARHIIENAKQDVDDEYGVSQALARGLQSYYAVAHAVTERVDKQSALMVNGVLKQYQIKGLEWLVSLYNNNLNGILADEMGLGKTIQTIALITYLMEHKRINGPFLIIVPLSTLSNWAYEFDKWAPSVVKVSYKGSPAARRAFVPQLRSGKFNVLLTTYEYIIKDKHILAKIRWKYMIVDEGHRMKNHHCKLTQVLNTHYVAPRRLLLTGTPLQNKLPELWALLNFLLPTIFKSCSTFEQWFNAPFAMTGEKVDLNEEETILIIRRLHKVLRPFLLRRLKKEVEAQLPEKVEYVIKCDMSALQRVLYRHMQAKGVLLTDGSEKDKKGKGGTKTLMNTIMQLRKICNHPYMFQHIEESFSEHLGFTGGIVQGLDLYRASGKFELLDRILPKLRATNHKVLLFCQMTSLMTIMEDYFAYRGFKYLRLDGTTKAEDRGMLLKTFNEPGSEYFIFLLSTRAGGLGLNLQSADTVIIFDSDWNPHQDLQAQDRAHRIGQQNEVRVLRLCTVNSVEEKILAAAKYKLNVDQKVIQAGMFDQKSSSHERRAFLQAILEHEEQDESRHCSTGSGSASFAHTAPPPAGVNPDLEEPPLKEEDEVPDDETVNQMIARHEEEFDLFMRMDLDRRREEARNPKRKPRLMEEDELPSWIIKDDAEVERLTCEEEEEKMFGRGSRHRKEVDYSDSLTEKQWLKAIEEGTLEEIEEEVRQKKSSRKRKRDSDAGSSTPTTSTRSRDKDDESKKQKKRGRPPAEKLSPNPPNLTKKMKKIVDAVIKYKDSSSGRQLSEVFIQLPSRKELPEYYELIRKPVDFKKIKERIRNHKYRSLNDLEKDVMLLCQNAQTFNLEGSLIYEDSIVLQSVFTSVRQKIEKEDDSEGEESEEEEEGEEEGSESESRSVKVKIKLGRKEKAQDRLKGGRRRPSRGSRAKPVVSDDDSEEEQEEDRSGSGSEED
T1 sequence (P51531 whole entry, the tested form may be a part): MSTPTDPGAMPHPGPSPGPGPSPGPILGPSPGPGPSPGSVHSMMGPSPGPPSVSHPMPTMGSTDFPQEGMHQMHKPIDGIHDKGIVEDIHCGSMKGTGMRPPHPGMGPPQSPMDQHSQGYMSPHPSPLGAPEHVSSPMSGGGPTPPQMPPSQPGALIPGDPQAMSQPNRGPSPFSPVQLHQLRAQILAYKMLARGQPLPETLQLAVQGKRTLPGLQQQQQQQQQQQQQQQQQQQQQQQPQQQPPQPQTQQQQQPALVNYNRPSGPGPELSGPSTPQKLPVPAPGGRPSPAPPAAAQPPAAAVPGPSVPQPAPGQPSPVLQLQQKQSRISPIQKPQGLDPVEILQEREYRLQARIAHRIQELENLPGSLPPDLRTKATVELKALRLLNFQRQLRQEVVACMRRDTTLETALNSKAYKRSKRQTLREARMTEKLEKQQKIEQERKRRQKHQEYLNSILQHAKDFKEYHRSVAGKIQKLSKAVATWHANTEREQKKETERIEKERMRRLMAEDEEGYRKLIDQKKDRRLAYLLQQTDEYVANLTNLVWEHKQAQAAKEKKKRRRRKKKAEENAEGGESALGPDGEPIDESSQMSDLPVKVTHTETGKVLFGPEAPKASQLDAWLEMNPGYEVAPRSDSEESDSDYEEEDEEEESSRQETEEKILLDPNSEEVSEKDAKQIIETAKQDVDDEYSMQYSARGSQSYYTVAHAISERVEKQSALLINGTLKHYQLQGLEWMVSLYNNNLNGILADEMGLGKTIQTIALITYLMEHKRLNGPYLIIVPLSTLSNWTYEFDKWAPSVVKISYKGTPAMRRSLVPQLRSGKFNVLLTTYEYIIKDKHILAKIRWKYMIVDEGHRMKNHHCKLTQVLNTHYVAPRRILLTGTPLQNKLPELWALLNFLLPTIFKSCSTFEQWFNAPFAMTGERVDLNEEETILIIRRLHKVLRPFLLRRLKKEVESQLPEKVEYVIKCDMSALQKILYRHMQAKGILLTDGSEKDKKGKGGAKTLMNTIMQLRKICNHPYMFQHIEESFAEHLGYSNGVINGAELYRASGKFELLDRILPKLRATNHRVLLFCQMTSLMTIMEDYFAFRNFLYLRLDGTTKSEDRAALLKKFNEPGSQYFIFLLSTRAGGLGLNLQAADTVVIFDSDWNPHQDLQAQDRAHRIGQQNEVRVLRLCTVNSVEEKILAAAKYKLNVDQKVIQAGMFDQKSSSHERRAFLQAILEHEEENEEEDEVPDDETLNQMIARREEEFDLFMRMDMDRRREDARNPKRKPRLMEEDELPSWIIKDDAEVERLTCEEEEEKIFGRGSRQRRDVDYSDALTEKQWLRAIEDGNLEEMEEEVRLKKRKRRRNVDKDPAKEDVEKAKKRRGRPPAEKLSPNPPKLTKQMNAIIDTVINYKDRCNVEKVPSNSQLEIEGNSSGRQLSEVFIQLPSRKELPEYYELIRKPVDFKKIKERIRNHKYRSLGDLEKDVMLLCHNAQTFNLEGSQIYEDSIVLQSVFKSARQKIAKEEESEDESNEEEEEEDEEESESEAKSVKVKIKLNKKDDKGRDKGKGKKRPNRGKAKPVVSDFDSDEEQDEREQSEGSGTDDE

SMILES	DC50 [1]	SMARCA2 % Degradation @ 1 μM [1]	DC50 [2]	inhibition at 1 µM [2]
Nc1nnc(-c2ccccc2O)cc1N1CCN(c2ccnc(C#CCCNC(=O)c3cc4ncccn4n3)n2)CC1 [Compound P-94, N-(4-(4-(4-(3-amino-6-(2-hydroxyphenyl)pyridazin-4-yl)piperazin-1-yl)pyrimidin-2-yl)but-3-yn-1-yl)pyrazolo[1,5-a]pyrimidine-2-carboxamide]	50 to 500 nM	++ (++=30-70%)	50 to 500 nM	< 30%
CC(C#Cc1nccc(N2CCN(c3cc(-c4ccccc4O)nnc3N)CC2)n1)NC(=O)c1cc2ncccn2n1 (centres unmarked) [Compound P-95, N-(4-(4-(4-(3-amino-6-(2-hydroxyphenyl)pyridazin-4-yl)piperazin-1-yl)pyrimidin-2-yl)but-3-yn-2-yl)pyrazolo[1,5-a]pyrimidine-2-carboxamide]	50 to 500 nM	+ (+=<30%)	< 50 nM	30 to 70%
Nc1nnc(-c2ccccc2O)cc1N1CC2CCC(C1)N2c1ccnc(C#CCCNC(=O)c2cc3ncccn3n2)n1 [Compound P-96, N-(4-(4-(3-(3-amino-6-(2-hydroxyphenyl)pyridazin-4-yl)-3,8-diazabicyclo[3.2.1]octan-8-yl)pyrimidin-2-yl)but-3-yn-1-yl)pyrazolo[1,5-a]pyrimidine-2-carboxamide]	500 to 5000 nM	++ (++=30-70%)	50 to 500 nM	> 70%
CC(C#Cc1nccc(N2C3CCC2CN(c2cc(-c4ccccc4O)nnc2N)C3)n1)NC(=O)c1cc2ncccn2n1 (centres unmarked) [Compound P-97, N-(4-(4-(3-(3-amino-6-(2-hydroxyphenyl)pyridazin-4-yl)-3,8-diazabicyclo[3.2.1]octan-8-yl)pyrimidin-2-yl)but-3-yn-2-yl)pyrazolo|1,5-a|pyrimidine-2-carboxamide]	50 to 500 nM	++ (++=30-70%)	50 to 500 nM	30 to 70%
Nc1nnc(-c2ccccc2O)cc1N1CC2CCC(C1)N2c1ccnc(C#CC2(NC(=O)c3cc4ncccn4n3)CC2)n1 [Compound P-98, N-(1-((4-(3-(3-amino-6-(2-hydroxyphenyl)pyridazin-4-yl)-3,8-diazabicyclo[3.2.1]octan-8-yl)pyrimidin-2-yl)ethynyl)cyclopropyl)pyrazolo[1,5-a]pyrimidine-2-carboxamide]	50 to 500 nM	++ (++=30-70%)	50 to 500 nM	30 to 70%
Nc1nnc(-c2ccccc2O)cc1N1CC2CCC(C1)N2c1ccnc(C#CCCCNC(=O)c2cc3ncccn3n2)n1 [Compound P-99, N-(5-(4-(3-(3-amino-6-(2-hydroxyphenyl)pyridazin-4-yl)-3,8-diazabicyclo[3.2.1]octan-8-yl)pyrimidin-2-yl)pent-4-yn-1-yl)pyrazolo[1,5-a]pyrimidine-2-carboxamide]	500 to 5000 nM	+ (+=<30%)	500 to 5000 nM	< 30%
Nc1nnc(-c2ccccc2O)cc1N1CC2CCC(C1)N2c1ccnc(C#CCNc2nc3ccccc3o2)n1 [Compound P-100, 2-(6-amino-5-(8-(2-(3-(benzo[d]doxazol-2-ylamino)prop-1-yn-1-yl)pyrimidin-4-yl)-3,8-diazabicyclo[3.2.1]octan-3-yl)pyridazin-3-yl)phenol]	50 to 500 nM	+++ (+++=>70%)	50 to 500 nM	30 to 70%
C[C@H]1CCN(c2cc(-c3ccccc3O)nnc2N)CCN1c1ccnc(C#CCNC(=O)c2cnc3ccccc3n2)n1 [Compound P-101, (S)-N-(3-(4-(4-(3-amino-6-(2-hydroxyphenyl)pyridazin-4-yl)-7-methyl-1,4-diazepan-1-yl)pyrimidin-2-y1)prop-2-yn-1-yl)quinoxaline-2-carboxamide]	< 50 nM	+++ (+++=>70%)	< 50 nM	> 70%
C[C@H]1CCN(c2cc(-c3ccccc3O)nnc2N)CCN1c1ccnc(C#CCNC(=O)c2cc3ncccn3n2)n1 [Compound P-102, (S)-N-(3-(4-(4-(3-amino-6-(2-hydroxyphenyl)pyridazin-4-yl)-7-methyl-1,4-diazepan-1-yl)pyrimidin-2-yl)prop-2-yn-1-yl)pyrazolo[1,5-a]pyrimidine-2-carboxamide]	50 to 500 nM	+++ (+++=>70%)	< 50 nM	> 70%
Cc1nn2ccn(CC#Cc3nccc(N4C5CCC4CN(c4cc(-c6ccccc6O)nnc4N)C5)n3)c(=O)c2c1C [Compound P-103, 5-(3-(4-(3-(3-amino-6-(2-hydroxyphenyl)pyridazin-4-yl)-3,8-diazabicyclo[3.2.1]octan-8-yl)pyrimidin-2-yl)prop-2-yn-1-yl)-2,3-dimethylpyrazolo[1,5-a]pyrazin-4(5H)-one]	50 to 500 nM	+++ (+++=>70%)	50 to 500 nM	30 to 70%
CC(C)c1cc(C(C)C)n(CC#Cc2nccc(N3CCCN(c4cc(-c5ccccc5O)nnc4N)CC3)n2)n1 [Compound P-104, 2-(6-amino-5-(4-(2-(3-(3,5-diisopropyl-1H-pyrazol-1-yl)prop-1-yn-1-yl)pyrimidin-4-yl)-1,4-diazepan-1-yl)pyridazin-3-yl)phenol]	50 to 500 nM	+++ (+++=>70%)	500 to 5000 nM	30 to 70%
CC(C)(C)OC(=O)N1Cc2cn(CC#Cc3nccc(N4CCCN(c5cc(-c6ccccc6O)nnc5N)CC4)n3)nc2C1 [Compound P-105, tert-butyl 2-(3-(4-(4-(3-amino-6-(2-hydroxyphenyl)pyridazin-4-yl)-1,4-diazepan-1-yl)pyrimidin-2-yl)prop-2-yn-1-yl)-2,6-dihydropyrrolo[3,4-c]pyrazole-5(4H)-carboxylate]	50 to 500 nM	+++ (+++=>70%)	< 50 nM	> 70%
Nc1nnc(-c2ccccc2O)cc1N1CC2CCC(C1)N2c1ccnc(C#CCNc2ncco2)n1 [Compound P-106, 2-(6-amino-5-(8-(2-(3-(oxazol-2-ylamino)prop-1-yn-1-yl)pyrimidin-4-yl)-3,8-diazabicyclo[3.2.1]octan-3-yl)pyridazin-3-yl)phenol]	500 to 5000 nM	++ (++=30-70%)	500 to 5000 nM	30 to 70%
CN(CC#Cc1nccc(N2CCCN(c3cc(-c4ccccc4O)nnc3N)CC2)n1)c1nc2ccccc2o1 [Compound P-107, 2-(6-amino-5-(4-(2-(3-(benzo[d]oxazol-2-yl(methyl)amino)prop-1-yn-1-yl)pyrimidin-4-yl)-1,4-diazepan-1-yl)pyridazin-3-yl)phenol]	< 50 nM	+++ (+++=>70%)	< 50 nM	> 70%
Cn1ccc(OCC#Cc2nccc(N3CCCN(c4cc(-c5ccccc5O)nnc4N)CC3)n2)n1 [Compound P-108, 2-(6-amino-5-(4-(2-(3-((1-methyl-1H-pyrazol-3-yl)oxy)prop-1-yn-1-yl)pyrimidin-4-yl)-1,4-diazepan-1-yl)pyridazin-3-yl)phenol]	50 to 500 nM	+++ (+++=>70%)	50 to 500 nM	> 70%
Nc1nnc(-c2ccccc2O)cc1N1CCCN(c2ccnc(C#CCn3ccn4nccc4c3=O)n2)CC1 [Compound P-109, 5-(3-(4-(4-(3-amino-6-(2-hydroxyphenyl)pyridazin-4-yl)-1,4-diazepan-1-yl)pyrimidin-2-yl)prop-2-yn-1-yl)pyrazolo[1,5-a]pyrazin-4(5H)-one]	< 50 nM	+++ (+++=>70%)	50 to 500 nM	30 to 70%
Nc1nnc(-c2ccccc2O)cc1N1CCCN(c2ccnc(/C=C/CNC(=O)c3cnc4ccccc4n3)n2)CC1 [Compound P-110, (E)-N-(3-(4-(4-(3-amino-6-(2-hydroxyphenyl)pyridazin-4-yl)-1,4-diazepan-1-yl)pyrimidin-2-yl)allyl)quinoxaline-2-carboxamide]	50 to 500 nM	+++ (+++=>70%)	50 to 500 nM	> 70%
Cc1c(C(=O)NC/C=C/c2nccc(N3CCCN(c4cc(-c5ccccc5O)nnc4N)CC3)n2)nn(C)c1C [Compound P-111, (E)-N-(3-(4-(4-(3-amino-6-(2-hydroxyphenyl)pyridazin-4-yl)-1,4-diazepan-1-yl)pyrimidin-2-yl)allyl)-1,4,5-trimethyl-1H-pyrazole-3-carboxamide]	50 to 500 nM	+++ (+++=>70%)	50 to 500 nM	30 to 70%
Nc1nnc(-c2ccccc2O)cc1N1CCCN(c2ccnc(/C=C/CNC(=O)c3cc4ncccn4n3)n2)CC1 [Compound P-112, (E)-N-(3-(4-(4-(3-amino-6-(2-hydroxyphenyl)pyridazin-4-yl)-1,4-diazepan-1-yl)pyrimidin-2-yl)allyl)pyrazolo[1,5-a]pyrimidine-2-carboxamide]	50 to 500 nM	+++ (+++=>70%)	50 to 500 nM	> 70%
NC/C=C/c1nccc(N2CCCN(c3cc(-c4ccccc4O)nnc3N)CC2)n1 [Compound P-113, (E)-2-(6-amino-5-(4-(2-(3-aminoprop-1-en-1-yl)pyrimidin-4-yl)-1,4-diazepan-1-yl)pyridazin-3-yl)phenol]	50 to 500 nM	++ (++=30-70%)	500 to 5000 nM	< 30%
